Test results as given in patent US20080262054A1, “Pharmaceutical Composition Containing Thiazolidinedione Compound” (priority 2005, published 2008).
Where a name gives a salt, the structure may show the parent alone.

Key:
[1] = Dissolution Rate Test 1 of Compound A (Test Example 1); type: physicochemical; details: JP first fluid, 37° C.
Experimental: About 40 mg of Compound A or a monohydrate of Compound A and a formulation excipient [one excipient is selected from the following excipients: 377.6 mg of lactose (Borculo Domo Ingredients), 78.0 mg of croscarmellose sodium (Ac-Di-Sol, FMC International), 15.6 mg of hydroxypropyl cellulose (HPC-L, Nippon Soda Co., Ltd.), 5.2 mg of magnesium stearate (NOF Corp.) and 0.112 mg of yellow ferric oxide (Kishi Kasei Co., Ltd.)] were added to 200 ml of Japanese Pharmacopoeia (JP) first fluid (7.0 ml of hydrochloric acid and water added to 2.0 g of sodium chloride followed by dissolving and bringing to a volume of 100 ml, normally used as a test liquid that imitates disintegration and elution of chemicals in the stomach) followed by stirring with a stirrer at 37° C. in a 300 ml conical beaker. 10 ml-samples were collected after 30 minutes, 1 hour, 3 hours and 6 hours followed by filtration using Acrodisk LC13 (PVDF, Gelman Science, Inc.). After discarding the first 3 ml, the next 7 ml were removed into a test tube. 5 ml of the sample in the test tube was taken with a whole pipette and transferred to a test tube containing 2 ml of methanol followed by mixing.
(§1) Quantification was carried out using HPLC, and solubility was determined from a calibration curve generated according to the method described below.
The calibration curve was generated by preparing methanol standard solutions of Compound A at concentrations of 400, 100 and 20 μg/ml, followed by the addition of 5 ml of JP first fluid to 2 ml of each standard solution, mixing and quantifying by HPLC.
Analytical column: L-column ODS (4.6 mm ID×15 cm, Chemicals Evaluation and Research Institute, Japan)
Mobile phase: 0.01 mol/1 mixture of acetate buffer (pH 5.0) and acetonitrile (13:7)
Column temperature: 40° C.
Detector: Ultraviolet absorption spectrophotometer (measuring wavelength: 290 nm)

[2] = Dissolution Rate Test 2 of Compound A (Test Example 2); type: physicochemical; details: JP first fluid, 37° C., subsequently to 1 hour (3 hours, 6 hours); FIG. 2
Experimental: Dissolution Rate Test 2 of 5-{4-[(6-methoxy-1-methyl-1H-benzimidazol-2-yl)methoxy]benzyl}thiazolidine-2,4-dione hydrochloride (Compound A) About 40 mg of Compound A or a monohydrate of Compound A and a formulation excipient [one excipient is selected from the following excipients: 23.9 mg of OPADRY II, 17.2 mg of polyvinyl alcohol (GOHSENOL GL-05, Nippon Synthetic Chemical Industry Co., Ltd.), and 23.9 mg of OPAGLOS 2] were added to 200 ml of Japanese Pharmacopoeia (JP) first fluid (7.0 ml of hydrochloric acid and water added to 2.0 g of sodium chloride followed by dissolving and bringing to a volume of 100 ml, normally used as a test liquid that imitates disintegration and elution of chemicals in the stomach) followed by stirring with a stirrer at 37° C. in a 300 ml conical beaker. 10 ml-samples were collected after 30 minutes, 1 hour, 3 hours and 6 hours followed by filtration using Acrodisk LC13 (PVDF, Gelman Science, Inc.). […]
as §1
The calibration curve was generated by preparing methanol standard solutions of Compound A at concentrations of 400, 100 and 20 μg/ml, followed by the addition of 5 ml of JP first fluid to 2 ml of each standard solution, mixing and quantifying by HPLC. […]

[3] = stirring, samples after 30 minutes, 1 hour, 3 hours and 6 hours, HPLC, FIG. 1

Row | solubility [1, 3] | solubility ([1]; subsequently to 1 hour (3 hours, 6 hours)) | solubility [2] | SMILES
1 | decrease over time | decreased rapidly | decreased rapidly | COc1ccc2nc(COc3ccc(CC4SC(=O)NC4=O)cc3)n(C)c2c1 (stereo not shown) [Compound A, 5-{4-[(6-methoxy-1-methyl-1H-benzimidazol-2-yl)methoxy]benzyl}thiazolidine-2,4-dione hydrochloride]
2 | extremely low | – | – | COc1ccc2nc(COc3ccc(CC4SC(=O)NC4=O)cc3)n(C)c2c1.Cl.O (stereo not shown) [monohydrate, 5-{4-[(6-methoxy-1-methyl-1H-benzimidazol-2-yl)methoxy]benzyl}thiazolidine-2,4-dione hydrochloride (Compound A) monohydrate]
